In patent US11603391B2, “CATH2 derivatives” (Universiteit Utrecht Holding B.V., priority 2014, dated 2023):
No end group written: not given here.

Assays:
[1] = assay type: in vivo, chicken (Ross308 broilers); conditions: for bodyweight at 7 days post hatch (D7): 1 mg/kg in ovo at embryonic day 18, compared to vehicle treated birds; for HATCHABILITY: in vivo, 1 mg/kg
Experimental: FIG. 8A-8B—Bodyweights of Ross308 broilers assessed at hatch (D0) (FIG. 8A) and at 7 days after hatch (D7) (FIG. 8B). Birds were injected at embryonic day 18 with 1 mg/kg peptide or vehicle.
DCATH2 peptide and truncated analogs D-CMAP(1-21) and D-CMAP(4-21) were suspended in a Cholesterol/PBS formulation. Ross308 eggs were injected in the amnion fluid at 18 days of embryonic age with 100 μl of peptide containing suspension and returned to an egg incubator to hatch (˜ at 21 days embryonic age). Both control groups were injected in the amnion fluid with cholesterol/PBS formulation. The 1 mg/kg bodyweight dose of peptide was calculated based on an embryo body weight of 22 g. After hatch, all birds were weighed individually (D0) and transferred into isolator units per treatment (n=120/group). Birds were fed ad libitum and at 7 days after hatch (D7) bodyweights of individual birds were assessed.

[2] = system: HD11 cells; assay: Neutralization of LPS-induced interleukin-1β transcription in HD11 cells (real time PCR); assay type: cell-based, chicken; conditions: 20 μM peptide pre-incubated with 50 ng/ml LPS; 4 h
Experimental: (§1) FIG. 11A-11B—Neutralization of lipopolysaccharide-induced interleukin-1β induction and nitric oxide production in HD11 cells by CMAP27 derived peptides. HD11 cells were seeded in 96 wells tissue culture treated plates (2×10^5 cell/mL) in RPMI-1640/10% FCS. Final concentrations of 50 ng/ml LPS were pre-incubated with or without 20 μM peptide for 30 min at 37° C. (5% CO2), applied to the cells and incubated for 4 h and 24 h. A) Transcription levels of interleukin-1 were determined by real time PCR (4 h only). B) Supernatants were collected for the determination of nitric oxide production (24 h incubations only) using the Griess assay. Significance levels: *P<0.05, **P<0.01, ***P<0.001. Data represents means±SEM from 3-4 independent experiments.
as §1, with “FIG. 12A-12B—Substitution” for “FIG. 11A-11B—Neutralization”, “of phenylalanine residues by tryptophan enhances the” for “of lipopolysaccharide-induced interleukin-1β induction and nitric oxide production”, “in vitro LPS neutralization capacity of” for “in HD11 cells by”, “h or” for “h and”
HD11 cells were seeded in 96 wells tissue culture treated plates (2×10^5 cell/mL) in RPMI-1640/10% FCS. Final concentrations of 50 ng/ml Salmonella minnesota LPS were pre-incubated with or without 20 μM peptide for 30 min at 37° C. (5% CO2), applied to the cells and incubated for 4 h and 24 h. A) Transcription levels of interleukin-1 were determined by real time PCR (4 h only). B) Supernatants were collected for the determination of nitric oxide production (24 h incubations only) using the Griess assay.

[3] = system: avian pathogenic Salmonella enteritidis pt13a; assay: In ovo peptide treatment, subcutaneous Salmonella enteritidis challenge of broiler chicks; assay type: in vivo, chicken (Ross308 broilers)
Excerpt: FIG. 1A-1B—Differential and total counts of chicken peripheral blood leukocytes at 2 days p.i. after subcutaneous injection with 10^6 CFU of avian pathogenic Salmonella enteritis pt13a. A) total counts. B) differential counts.
FIG. 2A-2B—Mortality after subcutaneous injection with 10^6 CFU of avian pathogenic Salmonella enteritis pt13a. A) Survival curves of peptide treated and nontreated birds during 7 days post infection. B) Reduction of mortality (%) relative to untreated infected birds (+ control).
(§2) FIG. 3A-3B—Lesion scores determined at 7 days p.i. after subcutaneous injection with 10^6 CFU of avian pathogenic Salmonella enteritis pt13a. Left and right thoracic air sacs (respiratory tract), liver and heart (systemic infection) were separately evaluated using a scoring system: 0=no lesions, 1=mild lesions, 2=moderate lesions and 3=severe lesions. The mean lesion scores (MLS) were calculated as the sum of lesion scores per bird. A) The percentage of salmonellosis positive birds (MLS>1) and the reduction of salmonellosis positive birds relative to untreated infected birds. B) The average lesion scores relative to untreated infected birds.
DCATH2 peptide (the full D-amino acid analog of CMAP1-26) was suspended in a cholesterol/PBS formulation. Ross308 eggs were injected in the amnion fluid at 18 days of embryonic age with 100 μl of DCATH2 containing suspension and returned to an egg incubator to hatch (˜ at 21 days embryonic age). Both control groups were injected in the amnion fluid with cholesterol/PBS formulation. The 1 mg/kg bodyweight dose of peptide was calculated based on an embryo body weight of 22 g. After hatch, birds were transferred into 4 pens per treatment (n=40/group). Three days after hatch, all birds except the negative control were subcutaneously inoculated with an avian pathogenic Salmonella enteritidis pt13a strain at a dose of 5×10^6 CFU per bird. Two day after challenge, 12 birds per group were sacrificed and used to take samples for blood and organ analysis. Blood samples were taken to determine total leukocyte counts and leukocyte differentiation. During the 7 day challenge period mortality was registered per day. At the end of the challenge period at 7 days post infection, all remaining birds were sacrificed and in the left and right side thoracic air sacs, liver and heart were examined for lesion scores.

[4] = system: avian pathogenic Escherichia coli 506; assay: In ovo peptide treatment, intratracheal E. coli challenge of broiler chicks; assay type: in vivo, chicken (Ross308 broilers)
Excerpt: FIG. 4A-4B—Differential and total counts of chicken peripheral blood leukocytes at 2 days p.i. after intra-tracheal injection with 10^6 CFU of avian pathogenic E. coli 506. A) total counts. B) differential counts.
FIG. 5A-5B—Mortality after intra-tracheal injection with 10^6 CFU of avian pathogenic E. coli 506. A) Survival curves of peptide treated and nontreated birds during 7 days post infection. B) Reduction of mortality (%) relative to untreated infected birds.
as §2, with “6A-6B—Lesion” for “3A-3B—Lesion”, “intratracheal” for “subcutaneous”, “E. coli 506.” for “Salmonella enteritis pt13a.”, “colibacillosis” for “salmonellosis”
FIG. 7—Thoracic air sac counts 7 days after intratracheal injection with 10^6 CFU of avian pathogenic E. coli 506.
DCATH2 peptide was suspended in a Cholesterol/PBS formulation. Ross308 eggs were injected in the amnion fluid at 18 days of embryonic age with 100 μl of DCATH2 containing suspension and returned to an egg incubator to hatch (˜ at 21 days embryonic age). Both control groups were injected in the amnion fluid with cholesterol/PBS formulation. The 1 mg/kg bodyweight dose of DCATH2 peptide was calculated based on an embryo body weight of 22 g. After hatch, birds were transferred into isolator units per treatment (n=54/group). Three days after hatch, all birds except the negative control were intratracheally inoculated with an avian pathogenic Escherichia coli 506 strain (UU strain) at a dose of 1×10^6 CFU per bird. Two day after challenge, 13 birds per group were sacrificed and used to take samples for blood and organ analysis. Blood samples were taken to determine total leukocyte counts and leukocyte differentiation. During the 7 day challenge period mortality was registered per day. At the end of the challenge period at 7 days post infection, all remaining birds were sacrificed and in the left and right side thoracic air sacs, liver and heart were examined for lesion scores.

[5] = 7 days p.i., 1 mg/kg in ovo, surviving birds
[6] = 2 days p.i., 1 mg/kg in ovo, compared to untreated non-infected birds
[7] = 2 days p.i., compared to non-treated, non-infected animals

## RFGRFLREIRRFRPKVTITIQ-NH2 [D-C(1-21)]
[1]
  bodyweight at 7 days post hatch (D7): significant higher
  HATCHABILITY: 95%

## CMAP10-21-NH2: N-terminally truncated variant of CMAP1-21 (RRFRPKVTITIQ-NH2)
[2]
  LPS-neutralizing activity (block of LPS-induced IL-1β expression, in words): lack LPS-neutralizing activity

## Phe/Trp substituted analog of CMAP7-21-NH2: CMAP7-21-NH2 with phenylalanine substituted by tryptophan (RKIRRWRPKVTITIQ-NH2)
[2]
  LPS-induced IL-1β expression blocked: 86.3%

## RFGRFLREIRRFRPKVTITIQGSARF-NH2 [DCATH2]
[3]; 1 mg/kg in ovo at embryonic day 18, Salmonella challenge 3 days after hatch
  delay of mortality: up to 3 days p.i.
[3]; 2 days p.i., 1 mg/kg in ovo, compared to non-infected birds
  absolute number of peripheral blood heterophils: significantly higher
[3]; 7 days p.i., 1 mg/kg in ovo
  decrease of severity of lesions in salmonellosis positive birds: 69%
  reduction of mortality relative to untreated infected birds: 50%
[3]; [5]
  reduction of salmonellosis positive birds (mean lesion score>1) relative to untreated infected birds: 53%
[1]
  bodyweight at 7 days post hatch (D7): significant higher
  HATCHABILITY: 97%
[4]; [6]
  absolute number of peripheral blood heterophils: significantly higher
  absolute number of peripheral blood leukocytes: significantly higher
[4]; [7]
  absolute number of lymphocytes: No differences
  absolute number of monocytes: No differences
[4]; 7 days p.i., 1 mg/kg in ovo
  reduction of mortality relative to untreated infected birds: 30%
  reduction of severity of colibacillosis-related lesions: 64%
[4]; [5]
  reduction of colibacillosis positive birds (MLS>1) relative to untreated infected birds: 52%
[4]; 7 days p.i., 1 mg/kg in ovo, thoracic air sac counts
  reduction of air sac colonization by E. coli: 93%

## RFLREIRRFRPKVTITIQ-NH2 [D-C(4-21)]
[1]
  bodyweight at 7 days post hatch (D7): significant higher
  HATCHABILITY: 94%

## Phe/Trp substituted analog of CMAP10-21-NH2: CMAP10-21-NH2 with phenylalanine substituted by tryptophan (RRWRPKVTITIQ-NH2)
[2]
  LPS-induced IL-1β expression blocked: 71.9%

## RFGRFLRKIRRFRPKVTITIQGSARFG (CMAP27) [CATH2, in b91 probably DCATH2 is meant]
[4]; 7 days p.i., 1 mg/kg in ovo
  reduction of severity of colibacillosis-related lesions: 64%
